Measured values: US20070292403A1, “Methods of treating a neurological disorder with creatine monohydrate” (priority 2006, published 2007)
“Also recorded” adds a separate entry of the source.

Legend:
[1] = test system: subjects with early Parkinson's disease (PD); test: Example 2: randomized double-blind futility trial, change in total UPDRS; format: in vivo, human; conditions: baseline to 12 months or time symptomatic therapy needed; creatine 10 g/day, minocycline 200 mg/day; worst change score imputed
Method: (§1) Study Design and Randomization. This example was a single arm futility study designed to assess creatine and minocycline. A placebo arm for calibration was included in the example. Eligible subjects were randomly assigned in a 1:1:1 fashion to receive 1) 10 g/day of creatine monohydrate and placebo minocycline, 2) placebo creatine monohydrate and 200 mg/day of minocycline, or 3) placebo creatine monohydrate and placebo minocycline. The primary futility analysis was at 12 months of follow-up, but each subject was followed for 18 months for additional safety information. Subjects and investigators were kept blinded to treatment group.
Participants. […] Two of the three cardinal manifestations of PD (tremor, rigidity, and bradykinesia) were required; these findings had to be asymmetric. The diagnosis of PD must have been made within 5 years of randomization. Women of childbearing potential were required to use adequate birth control and have a negative pregnancy test at baseline. Subjects were excluded if they had any secondary causes of parkinsonism, such as drug induced parkinsonism or structural lesions; had atypical parkinsonian syndromes; gait freezing or impairment in postural reflexes; had prior stereotaxis surgery for PD; used creatine, minocycline, or any investigational agent within 90 days prior to randomization; had known hypersensitivity to creatine or minocycline; used CoQ10 in doses greater than 300 mg 90 days prior to randomization; or had any clinically significant medical condition that could interfere with the subject's ability to safely participate in the study or be followed.
(§2) Dosages. Creatine was administered as 5 g sachets mixed with 8 ounces of liquid taken twice a day and minocycline was administered as 100 mg capsules taken twice a day. Both were taken with meals.
Outcome measures. […] Disability was assessed by the sight investigator, based on impairment in ambulation, activities in daily living, and occupational status. […] Both the site investigator and medical monitors assessed the potential relationship between SAEs and study drug. […]

[2] = test system: subjects with early Parkinson's disease (PD); test: Example 2: safety and tolerability in the early Parkinson's disease trial; format: in vivo, human
Method: as §1, §2
Outcome measures. The primary, prespecified outcome measure was the change in the total Unified PD Rating Scale (UPDRS) score from baseline to either the time at which there was sufficient disability to warrant symptomatic therapy for PD or 12 months, whichever came first. Disability was assessed by the sight investigator, based on impairment in ambulation, activities in daily living, and occupational status. The mean change in total UPDRS for each treatment group was compared to a prespecified futility threshold of a 30% reduction in the historically derived change in the total UPDRS, which was based on a placebo arm of a previous clinical trial. Tolerability was defined as the proportion of subjects taking study drug for the full 12 months. All […] adverse events (SAEs) were reviewed by the study medical monitor and an independent medical monitor. Both the site investigator and medical monitors assessed the potential relationship between SAEs and study drug.
Study Procedures. At the screening visit, the purpose and potential risks were explained to potential subjects and each subject gave written consent. […] Blood was obtained for serum chemistry and complete blood count. Participants were reevaluated at 1, 3, 6, 9, and 12 months (±6 days) after the baseline visit using the battery of clinical scales and blood was drawn again at 6 and 12 months.

## CN(C)c1ccc(O)c2c1C[C@H]1C[C@H]3[C@H](N(C)C)C(O)=C(C(N)=O)C(=O)[C@@]3(O)C(O)=C1C2=O [Minocycline, minocycline]
[1]
  Mean (SD) change in total UPDRS: 7.09 (8.71)
[2]; creatine 10 g/day, minocycline 200 mg/day
  SAEs occurring during the study: Six
[2]; creatine 10 g/day, minocycline 200 mg/day, 12 months
  Tolerability: generally well tolerated; also recorded: less well tolerated than creatine
[2]; human, in vivo
  Patients with dose reductions: 15
